Values of other authors as cited in patent publication US12285413B2 (priority 2020, dated 2025).

Legend:
SARS-CoV [1] = settings: multiple in vitro systems, including primary human airway epithelial cell cultures
MERS-CoV = settings: multiple in vitro systems, including primary human airway epithelial cell cultures
SARS-CoV [2] = settings: mouse, prophylactic and early therapeutic administration
glucocorticoid receptor = glucocorticoid receptor (Homo sapiens, UniProt P04150); settings: relative to cortisol
Sequence of glucocorticoid receptor (P04150 whole entry): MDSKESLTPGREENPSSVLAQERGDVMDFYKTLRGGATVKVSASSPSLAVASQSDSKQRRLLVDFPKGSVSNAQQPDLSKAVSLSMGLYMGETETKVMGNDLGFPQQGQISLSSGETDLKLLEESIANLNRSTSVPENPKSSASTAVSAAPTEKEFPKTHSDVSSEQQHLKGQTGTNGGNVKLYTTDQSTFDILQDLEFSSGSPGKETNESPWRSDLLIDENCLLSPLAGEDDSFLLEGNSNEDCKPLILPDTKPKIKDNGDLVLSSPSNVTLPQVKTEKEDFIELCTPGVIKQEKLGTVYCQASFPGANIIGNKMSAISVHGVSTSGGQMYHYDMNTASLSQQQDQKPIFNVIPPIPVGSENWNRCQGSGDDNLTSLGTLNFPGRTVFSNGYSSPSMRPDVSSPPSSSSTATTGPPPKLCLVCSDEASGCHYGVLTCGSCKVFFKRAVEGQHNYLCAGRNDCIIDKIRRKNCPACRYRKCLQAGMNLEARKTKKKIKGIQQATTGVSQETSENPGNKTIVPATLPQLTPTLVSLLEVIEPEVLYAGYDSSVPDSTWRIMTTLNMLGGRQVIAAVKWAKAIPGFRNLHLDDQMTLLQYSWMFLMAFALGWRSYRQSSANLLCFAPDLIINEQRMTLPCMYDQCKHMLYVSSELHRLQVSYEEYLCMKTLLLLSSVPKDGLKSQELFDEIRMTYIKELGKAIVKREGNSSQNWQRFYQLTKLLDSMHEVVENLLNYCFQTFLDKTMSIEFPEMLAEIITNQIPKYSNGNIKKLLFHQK

Which “effect on coronavirus replication in in-vitro systems” value (coronavirus) does the source give for `CCN(CCO)CCCC(C)Nc1ccnc2cc(Cl)ccc12` (stereo not shown) [Hydroxychloroquine] here?
Its value is “inhibitory effects”.

Which “EC50, inhibition of SARS-CoV replication” value (SARS-CoV [1]) does the source give for `CCC(CC)COC(=O)[C@H](C)N[P@](=O)(OC[C@H]1O[C@@](C#N)(c2ccc3c(N)ncnn23)[C@H](O)[C@@H]1O)Oc1ccccc1` [Remdesivir] here?
Its value is “submicromolar”.

What about the “EC50, inhibition of MERS-CoV replication” value (MERS-CoV) of the same molecule?
The value was “submicromolar”.

What about the lung viral load (SARS-CoV [2]) of the same molecule?
The lung viral load was “reduced lung viral load”.

And the respiratory function (SARS-CoV [2])?
Its respiratory function is “improved respiratory function”.

And the “antiviral activity in SARS-CoV-2 in-vitro models” value (SARS-CoV-2)?
The value was “antiviral activity”.

Which “anti-inflammatory and immunosuppressive potency versus cortisol” value (glucocorticoid receptor) does the source give for `C[C@@H]1C[C@H]2[C@@H]3CCC4=CC(=O)C=C[C@]4(C)[C@@]3(F)[C@@H](O)C[C@]2(C)[C@@]1(O)C(=O)CO` [dexamethasone] here?
Its value is “approximately 30 times”.
